Data from patent US10221173B2, “Chemical compounds” (AstraZeneca AB, priority 2017, dated 2019).
Converted amounts (≈) assume the structure as drawn.

Key:
[1] = molecular target: T1, Estrogen Receptor (ERα) in MCF-7 cells (Homo sapiens (Human), UniProt P03372); experiment: Western blotting assay, ER down-regulation in MCF-7; assay type: cell-based; conditions: MCF-7, 100 nM compound, 48 h, vs 100 nM fulvestrant
[2] = molecular target: estrogen receptor (ERα) in CAMA-1 cells (Homo sapiens (Human), UniProt P03372); experiment: Western blotting assay, ER down-regulation in CAMA-1; assay type: cell-based; conditions: CAMA-1, 100 nM compound, 48 h, vs 100 nM fulvestrant
Chain of estrogen receptor (ERα) in CAMA-1 cells (P03372 whole entry): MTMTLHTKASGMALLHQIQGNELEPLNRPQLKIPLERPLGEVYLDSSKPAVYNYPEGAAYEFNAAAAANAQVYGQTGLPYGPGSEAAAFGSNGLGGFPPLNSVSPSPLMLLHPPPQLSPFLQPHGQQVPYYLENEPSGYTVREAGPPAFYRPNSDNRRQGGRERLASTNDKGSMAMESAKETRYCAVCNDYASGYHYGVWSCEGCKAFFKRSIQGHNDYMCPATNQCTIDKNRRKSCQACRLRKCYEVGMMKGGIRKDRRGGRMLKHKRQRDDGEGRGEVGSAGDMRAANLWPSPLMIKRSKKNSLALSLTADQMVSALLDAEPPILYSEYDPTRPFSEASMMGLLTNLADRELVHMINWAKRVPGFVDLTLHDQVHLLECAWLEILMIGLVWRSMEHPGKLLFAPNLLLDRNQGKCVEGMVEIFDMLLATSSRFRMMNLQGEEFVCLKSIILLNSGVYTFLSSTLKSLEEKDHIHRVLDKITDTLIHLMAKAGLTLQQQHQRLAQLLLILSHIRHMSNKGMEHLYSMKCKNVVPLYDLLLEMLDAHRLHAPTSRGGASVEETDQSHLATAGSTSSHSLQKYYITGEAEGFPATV

hERG potassium channel = hERG potassium channel (Homo sapiens (Human), UniProt Q12809)
Chain of hERG potassium channel (Q12809 whole entry): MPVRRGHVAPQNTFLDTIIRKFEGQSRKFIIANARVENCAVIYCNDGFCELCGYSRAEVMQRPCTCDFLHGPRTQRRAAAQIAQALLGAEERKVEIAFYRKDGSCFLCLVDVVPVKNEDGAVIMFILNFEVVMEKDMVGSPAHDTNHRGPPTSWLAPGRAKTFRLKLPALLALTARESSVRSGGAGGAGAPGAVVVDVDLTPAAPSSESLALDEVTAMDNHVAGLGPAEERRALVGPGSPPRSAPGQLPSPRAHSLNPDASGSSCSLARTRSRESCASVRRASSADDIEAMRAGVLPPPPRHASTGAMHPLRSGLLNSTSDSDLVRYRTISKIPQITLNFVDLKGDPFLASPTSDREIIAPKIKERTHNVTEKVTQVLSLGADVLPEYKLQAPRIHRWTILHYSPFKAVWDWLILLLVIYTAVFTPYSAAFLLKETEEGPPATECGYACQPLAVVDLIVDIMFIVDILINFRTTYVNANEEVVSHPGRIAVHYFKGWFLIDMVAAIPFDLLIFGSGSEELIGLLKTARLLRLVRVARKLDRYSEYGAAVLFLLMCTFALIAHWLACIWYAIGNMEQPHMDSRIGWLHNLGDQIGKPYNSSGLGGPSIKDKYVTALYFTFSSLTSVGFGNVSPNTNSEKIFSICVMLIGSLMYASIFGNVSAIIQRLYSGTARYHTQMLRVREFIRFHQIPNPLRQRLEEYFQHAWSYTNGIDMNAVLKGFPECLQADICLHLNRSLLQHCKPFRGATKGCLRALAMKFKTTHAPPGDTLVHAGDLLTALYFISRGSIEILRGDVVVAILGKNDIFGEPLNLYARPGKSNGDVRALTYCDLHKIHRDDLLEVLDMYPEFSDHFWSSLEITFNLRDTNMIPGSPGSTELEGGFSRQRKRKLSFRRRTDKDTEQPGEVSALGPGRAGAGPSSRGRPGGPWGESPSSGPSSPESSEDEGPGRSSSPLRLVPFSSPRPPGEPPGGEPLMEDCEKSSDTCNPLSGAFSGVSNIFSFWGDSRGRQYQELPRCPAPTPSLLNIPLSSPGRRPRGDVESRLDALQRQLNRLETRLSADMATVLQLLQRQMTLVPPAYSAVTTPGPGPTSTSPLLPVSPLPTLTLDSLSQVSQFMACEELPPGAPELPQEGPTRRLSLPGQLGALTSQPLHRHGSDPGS
Experimental: The assay was conducted as follows with all reagents used at room temperature unless otherwise stated.
All compounds were acoustically dispensed in quadruplicate using a Labcyte Echo.
Calculation of results is performed using APC package within Genedata. For the routine normalization of well data with Neutral and Inhibitor control well groups as reference, GeneData Assay Analyzer uses the following equation to normalize the signal values to the desired signal range:
[formula] x is the measured raw signal value of a well is the median of the measured signal values for the Central Reference (Neutral) wells on a plate is the median of the measured signal values for the Scale Reference (Inhibitor) wells on a plate CR is the desired median normalized value for the Central Reference (Neutral) SR is the desired median normalized value for the Scale Reference (Inhibitor)

[3] = Thermodynamic solubility (shake-flask); assay type: physicochemical; conditions: aqueous phosphate buffer, 25 °C, pH 7.4, aqueous buffer, thermodynamic from solid, phosphate buffer pH 7.4, 24 hours
[4] = molecular target: T1, Estrogen Receptor (ERα) in MCF-7 cells; experiment: MCF-7 ER down-regulation assay (immuno-fluorescence); assay type: cell-based
Experimental: The ability of compounds to down-regulate Estrogen Receptor (ER) numbers was assessed in a cell based immuno-fluorescence assay using the MCF-7 human ductal carcinoma breast cell line. MCF-7 cells were revived directly from a cryovial (approx 5×10^6 cells) in Assay Medium (phenol red free Dulbecco's Modified Eagle's medium (DMEM); Sigma D5921) containing 2 mM L-Glutamine and 5% (v/v) Charcoal/Dextran treated foetal calf serum. Cells were syringed once using a sterile 18G×1.5 inch (1.2×40 mm) broad gauge needle and cell density was measured using a Coulter Counter (Beckman). […] Following cell seeding, plates were incubated overnight at 37° C., 5% CO2 (Liconic carousel incubator). Test data was generated using the LabCyte Echomodel 555 compound reformatter which is part of an automated workcell (Integrated Echo 2 workcell). Compound stock solutions (10 mM) of the test compounds were used to generate a 384 well compound dosing plate (Labcyte P-05525-CV1). […] 40 μL of DMSO added to wells in row P on the source plate allowed for DMSO normalisation across the dose range. To dose the control wells 40 μL of DMSO was added to row O1 and 40 μL of 100 μM fulvestrant in DMSO was added to row O3 on the compound source plate.
The Echo uses acoustic technology to perform direct microplate-to-microplate transfers of DMSO compound solutions to assay plates. The system can be programmed to transfer volumes as low as 2.5 nL in multiple increments between microplates and in so doing generates a serial dilution of compound in the assay plate which is then back-filled to normalise the DMSO concentration across the dilution range. […] The fixing method described above was carried out on the Integrated Echo 2 workcell. Immunostaining was performed using an automated AutoElisa workcell. The PBS/Proclin was aspirated from all wells and the cells permeabilised with 40 μL PBS containing 0.5% Tween™ 20 (v/v) for 1 hour at room temperature. The plates were washed three times in 250 μL of PBS/0.05% (v/v) Tween 20 with Proclin (PBST with a Biocide preservative) and then 20 μL of ERα (SP1) Rabbit monoclonal antibody (Thermofisher) 1:1000 in PBS/Tween™/3% (w/v) Bovine Serum Albumin was added. The plates were incubated overnight at 4° C. (Liconic carousel incubator) and then washed three times in 250 μL of PBS/0.05% (v/v) Tween™ 20 with Proclin (PBST). The plates were then incubated with 20 μL/well of a goat anti-rabbit IgG AlexaFluor 594 or goat anti-rabbit AlexaFluor 488 antibody (Molecular Probes) with Hoechst at 1:5000 in PBS/Tween™/3% (w/v) Bovine Serum Albumin for 1 hour at room temperature. The plates were then washed three times in 250 μL of PBS/0.05% (v/v) Tween™ 20 with Proclin (PBST with a Biocide preservative). 20 μL of PBS was added to each well and the plates covered with a black plate seal and stored at 4° C. before being read. […] The mean total intensity was normalized for cell number giving the total intensity per cell. The data was exported into a suitable software package (such as Origin) to perform curve fitting analysis.

[5] = Human plasma protein binding (equilibrium dialysis); assay type: in vitro ADME
[6] = Log D (shake flask, 1-octanol/aqueous buffer); assay type: physicochemical; conditions: 1-octanol/aqueous buffer, pH 7.4, pH 7.4
[7] = molecular target: recombinant human Estrogen Receptor alpha ligand binding domain (ER alpha-LBD (GST)) (Homo sapiens (Human), UniProt P03372); experiment: ERα binding assay (LanthaScreen TR-FRET competition)
Chain of recombinant human Estrogen Receptor alpha ligand binding domain (ER alpha-LBD (GST)) (P03372 307-554): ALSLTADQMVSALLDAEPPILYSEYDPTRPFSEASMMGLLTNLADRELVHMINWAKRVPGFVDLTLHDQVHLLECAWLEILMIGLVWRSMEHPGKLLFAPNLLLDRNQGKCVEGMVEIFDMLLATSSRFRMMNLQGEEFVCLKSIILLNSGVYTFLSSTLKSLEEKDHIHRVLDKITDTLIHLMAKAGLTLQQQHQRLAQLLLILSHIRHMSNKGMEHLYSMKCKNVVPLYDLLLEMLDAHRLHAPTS

T1 sequence (P03372 whole entry): as the sequence (P03372 whole entry) above

Compound | MCF7 Western % ER deg vs Fv [1] [%] | CAMA1 Western % ER deg vs Fv [2] [%] | IC50 (hERG potassium channel) [nM] | solubility at 24 h [3] [µM] | IC50 [4] [nM] | Human plasma protein binding (% free) [5] [% free] | logD [6] | IC50 [7] [nM]
C[C@@H]1Cc2c([nH]c3ccccc23)[C@@H](c2cccc(OCCNCCCF)c2)N1CC1(F)COC1 [Example 1, 3-Fluoro-N-(2-(3-((1R,3R)-2-((3-fluorooxetan-3-yl)methyl)-3-methyl-2,3,4,9-tetrahydro-1H-pyrido[3,4-b]indol-1-yl)phenoxy)ethyl)propan-1-amine] | 79 | 66 | 4400 | 303 (≈ 142 µg/mL) | – | – | – | –
COc1ccc(OCCNCCCF)cc1[C@@H]1c2[nH]c3ccccc3c2C[C@@H](C)N1CC(F)(F)F [Example 7, 3-Fluoro-N-(2-(4-methoxy-3-((1R,3R)-3-methyl-2-(2,2,2-trifluoroethyl)-2,3,4,9-tetrahydro-1H-pyrido[3,4-b]indol-1-yl)phenoxy)ethyl)propan-1-amine] | 100 | 90 | 3800 | 35 (≈ 17.3 µg/mL) | 0.12 | 1.5 | 3.7 | 1.5
COc1cnc(OCCNCCCF)cc1[C@@H]1c2[nH]c3ccccc3c2C[C@@H](C)N1CC(F)(F)F [Example 12, 3-fluoro-N-(2-((5-methoxy-4-((1R,3R)-3-methyl-2-(2,2,2-trifluoroethyl)-2,3,4,9-tetrahydro-1H-pyrido[3,4-b]indol-1-yl)pyridin-2-yl)oxy)ethyl)propan-1-amine] | 92 | 89 | 8200 | – | 0.059 | – | – | 0.62
C[C@@H]1Cc2c([nH]c3ccccc23)[C@@H](c2c(F)ccc(OCCNCCCF)c2F)N1CC1(F)COC1 [Example 13, N-(2-(2,4-difluoro-3-((1R,3R)-2-((3-fluorooxetan-3-yl)methyl)-3-methyl-2,3,4,9-tetrahydro-1H-pyrido[3,4-b]indol-1-yl)phenoxy)ethyl)-3-fluoropropan-1-amine] | 83 | 92 | 2600 | 493 (≈ 249 µg/mL) | 0.22 | 3.5 | 2.6 | 1.6
C[C@@H]1Cc2c([nH]c3ccc(F)cc23)[C@@H](c2c(F)ccc(OCCNCCCF)c2F)N1CC(F)(F)CO [Example 15, 3-((1R,3R)-1-(2,6-difluoro-3-(2-((3-fluoropropyl)amino)ethoxy)phenyl)-6-fluoro-3-methyl-1,3,4,9-tetrahydro-2H-pyrido[3,4-b]indol-2-yl)-2,2-difluoropropan-1-ol] | 94 | 91 | 4600 | 571 (≈ 302 µg/mL) | 0.079 | 3.2 | 2.9 | 0.55
CCc1ccc(OCCNCCCF)cc1[C@@H]1c2[nH]c3ccccc3c2C[C@@H](C)N1CC(F)(F)F [Example 21, N-(2-(4-ethyl-3-((1R,3R)-3-methyl-2-(2,2,2-trifluoroethyl)-2,3,4,9-tetrahydro-1H-pyrido[3,4-b]indol-1-yl)phenoxy)ethyl)-3-fluoropropan-1-amine] | 99 | 95 | – | 3 (≈ 1.47 µg/mL) | 1.6 | 0.10 | 4.6 | 2.6
C[C@@H]1Cc2c([nH]c3ccccc23)[C@@H](c2cc(OCCNCCCF)ccc2Cl)N1CC(F)(F)F [Example 22, N-(2-(4-chloro-3-((1R,3R)-3-methyl-2-(2,2,2-trifluoroethyl)-2,3,4,9-tetrahydro-1H-pyrido[3,4-b]indol-1-yl)phenoxy)ethyl)-3-fluoropropan-1-amine] | 96 | 96 | – | 0.7 (≈ 0.349 µg/mL) | 0.12 | 0.61 | 4.2 | 1.4
C[C@@H]1Cc2c([nH]c3ccccc23)[C@@H](c2cc(OCCNCCCF)ccc2C#N)N1CC(F)(F)F [Example 23, 4-(2-((3-fluoropropyl)amino)ethoxy)-2-((1R,3R)-3-methyl-2-(2,2,2-trifluoroethyl)-2,3,4,9-tetrahydro-1H-pyrido[3,4-b]indol-1-yl)benzonitrile] | 95 | 95 | 5400 | 73 (≈ 35.7 µg/mL) | 0.5 | 3.7 | 3.4 | 2.7
